Data on nine molecules can be found in patent EP0552418A1, “N-substituted-3-iodopropiolamide, production and use thereof” (TAKEDA CHEMICAL INDUSTRIES, LTD., priority 1992, dated 1993).

Structures are written as SMILES.

One experiment has as its system wood rot fungi. Briefly: Preserving activity for wood preservatives, overall statement for both wood rot fungi. The experiment is classed as cell-based, Tyromyces palustris, Coriolus versicolor. The conditions noted are these: statement in words on Table 2. How it is done: This test was conducted according to Specification No. 1 of Japan Wood Preserving Association, enacted in 1979, amended in 1989 and titled "Test methods of preserving activity for wood preservatives used in the coating, spraying and dipping treatment".
• ① Tyromyces palustris (Ber. et Curt.) Murr., FFPRI 0507 --"Ouzuratake" • ② Coriolus versicolor(L. ex Fr.) Quélet, FFPRI 1030 --"Kawaratake" These two fungi are classified as wood rot fungi.
The antimicrobial operation was performed with specifying types of fungi for corresponding type of trees. The combinations were as follows: Cedar----Tyromyces palustris ("Ouzuratake") Beech----Coriolus versicolor ("Kawaratake")
The test results were presented by the ratio of average weight loss of test specimens due to antimicrobial operation. The standard deviation and coefficient of variation were also determined. The ratio of weight loss for each test specimen was calculated by the following equation, and its average was also determined: The ratio of weight loss(%) = (W₃ - W₄ ) / W₃ × 100. Lower value of the ratio of weight loss corresponds to higher wood preserving activity. […]

Experiment [1] concerns Aspergillus Niger, Penicillium funiculosum, Rhizopus javanicus, Aureobasidium pullulans, Gliocladium virens. Description: Fungicide activity for wood fungicide, sum over the five fungi and damage value. The settings on record: for damage value (D = S₁ / S₀ × 100): relative to untreated specimens (100.0), lower = higher activity; for wood fungicide activity: statement in words on Table 3. The experiment is classed as cell-based. How it is done: This test was conducted according to Specification No.2 of Japan Wood Preserving Association, enacted in 1979 and titled "Test methods of fungicide activity for wood fungicide".
• ① Aspergillus niger van Tieghem IFO 6341 = ATCC 6275 • ② Penicillium funiculosum Thom (formerly : Penicillium luteum Zukal) IFO 6345 = ATCC 9644 . • ③ Rhizopus javanicus Takeda (formerly : Rhizopus nigricans Ehrenberg S.N. 32) IFO 6354 • ④ Aureobasidium pullulans (de Bary) Arnaud IFO 6353 = IAM (H. Iizuka, F-24) • ⑤ Gliocladium virens Miller, Gidden & Fosteb IFO 6355 = ATCC 9645 (formerly : Trichoderma viride, T.I.)
The average rating (A) was determined for each type of fungi with the following equation: Average rating (A) = (a₁ + a₂ + a₃ + a₄ + a₅ + a₆ ) / 6 [formula] wherein a₁, a₂ ...a₆ : rating for each test specimen.
The damage value was determined with the following equation after determining the sum of average rating by adding each rating of test specimens for each concentration of fungicide solution: S = A₁ + A₂ + A₃ + A₄ + A₅ [formula] wherein A₁, A₂.., A₅: average rating for each type of fungi D = S₁ / S₀ × 100 [formula] wherein S₀ : S for untreated test specimens S₁ : S for specimens treated with certain concentration of fungicide solution
Both lower rating value and lower damage value correspond to higher wood fungicide activity. […]

Consider `CC(C)(C)NC(=O)C#CI` [Example 1, N-(tert-Butyl)-3-iodopropiolamide], for which the wood preserving activity entry in the experiment on wood rot fungi was “excellent wood preserving activity”. Moreover, in experiment [1] (0.5% xylene solution), the “damage value (D = S₁ / S₀ × 100)” value amounted to 13.3. Also, in experiment [1], the wood fungicide activity result is reported as “excellent wood fungicide activity”.

Take `CCCCCCCCCCNC(=O)C#CI` [Example 2, N-(n-Decyl)-3-iodopropiolamide]: the wood preserving activity entry in the experiment with wood rot fungi was “excellent wood preserving activity”. For the same molecule, the “damage value (D = S₁ / S₀ × 100)” value in experiment [1] (0.5% xylene solution) came to 62.2.

For the molecule `CCCCNC(=O)C#CI` [Example 4, N-(n-Butyl)-3-iodopropiolamide], the wood preserving activity result in the experiment with wood rot fungi is “excellent wood preserving activity”. Besides, the wood fungicide activity result in experiment [1] is given as “excellent wood fungicide activity”.

Regarding `CCC(C)NC(=O)C#CI` (stereo not drawn) [Example 5, N-(sec-Butyl)-3-iodopropiolamide], the wood preserving activity entry in the experiment with wood rot fungi is reported as “excellent wood preserving activity”. Also, the “damage value (D = S₁ / S₀ × 100)” value in experiment [1] (0.5% xylene solution) turned out to be 28.9. Also, in experiment [1], the wood fungicide activity entry is given as “excellent wood fungicide activity”.

Regarding `CC(C)CNC(=O)C#CI` [Example 6, N-Isobutyl-3-iodopropiolamide], in the experiment with wood rot fungi, the wood preserving activity result is “excellent wood preserving activity”. For the same molecule, the “damage value (D = S₁ / S₀ × 100)” value in experiment [1] (0.5% xylene solution) is listed as 20.2. Besides, the wood fungicide activity entry in experiment [1] was “excellent wood fungicide activity”.

Regarding `CCCCCNC(=O)C#CI` [Example 7, N-(n-Pentyl)-3-iodopropiolamide], the wood preserving activity result with wood rot fungi is reported as “excellent wood preserving activity”. Besides, the “damage value (D = S₁ / S₀ × 100)” value in experiment [1] (0.5% xylene solution) turned out to be 34.4.

With `CCCCCCNC(=O)C#CI` [Example 8, N-(n-Hexyl)-3-iodopropiolamide], the wood preserving activity entry in the experiment on wood rot fungi is on record as “excellent wood preserving activity”. In addition, in experiment [1] (0.5% xylene solution), the “damage value (D = S₁ / S₀ × 100)” value came out at 23.3. For the same molecule, the wood fungicide activity entry in experiment [1] is reported as “excellent wood fungicide activity”.

Consider `CCCCCCCCNC(=O)C#CI` [Example 10, N-(n-Octyl)-3-iodopropiolamide], for which the “damage value (D = S₁ / S₀ × 100)” value in experiment [1] (0.5% xylene solution) is 54.4.

As for `CCCCCCCCCNC(=O)C#CI` [Example 11, N-(n-Nonyl)-3-iodopropiolamide], the “damage value (D = S₁ / S₀ × 100)” value in experiment [1] (0.5% xylene solution) came out at 82.2. Also, the “Sum (S = A₁ + A₂ + A₃ + A₄ + A₅)” value in experiment [1] (0.5% xylene solution, sum of average ratings of five fungi, untreated 15.0) came out at 12.3.
